Here are results for three compounds from patent US9458102B2 (priority 2011, dated 2016).

Like-named read-outs stand apart in the source and are kept apart here.

For assay [1], the system named is heteromeric rod CNG channels consisting of CNGA1 and CNGB1 subunits. In words: CNG channel block at subsaturating cGMP (state dependence of block). It is filed as cell-based. The conditions noted are these: subsaturating cGMP (50 or 100 μM), +50 mV, normalized to KD at 2 mM cGMP. From the text: KD values at saturating cGMP were corrected for ion accumulation. Solid lines indicate simulations for exclusive closed channel blockers, using KD/KDsat=(1−Fsat)/(1−FsatI/Imax), where Fsat is the estimated fraction of open heteromeric rod channels in saturating cGMP assuming Fsat=0.3 (a), 0.56 (b), or 0.78 (c). The dotted line is a simulation for a blocker with no preference for state, or KD/KDsat=1. The dashed line is a simulation for an exclusive open channel blocker, using KD/KDsat=(I/Imax)^−1.
The solid lines in FIG. 4 marked a, b, and c represent the expected relationship between KD and the fraction of closed channels for an exclusive closed channel blocker. Each of a, b, and c uses one estimate for the probability of closed heteromeric retinal rod channels at saturating cGMP. The simulations are described in the following references: Matthews G et al, J Physiol 403, 389-405 (1988); Taylor W R & Baylor D A, J Physiol 483 567-582 (1995); and Bucossi G et al, Biophys J 72, 1165-1181 (1997), all of which are incorporated by reference herein. The dotted line represents a simulation of a blocker with no preference as to conformational of the channel. The dashed line represents a simulation for an exclusive open channel blocker.
(§1) Recordings from inside-out excised patches were made 3-7 days after oocyte injection on an Axopatch 1D® amplifier (Axon Instruments, Foster City, Calif.). Briefly, oocyte vitelline membranes were removed in solution containing 200 mM K aspartate, 20 mM KCl, 1 mM MgCl2, 10 mM EGTA, 10 mM HEPES, pH 7.4. Oocytes were placed in a recording chamber in a solution containing 130 mM NaCl, 2 mM HEPES, 0.02 mM EDTA, 1 mM EGTA, pH 7.6, and borosilicate glass electrodes (1-3 MΩ) were filled with identical solution. Macroscopic currents were filtered at 1 kHz and sampled at 2 kHz using pCLAMP 8.0® software (Axon Instruments). Channels were either fully activated with 2 mM or partially activated with 50 and 100 μM cGMP. […] Glass syringes and Teflon tubing were used to minimize the binding of compounds to surfaces; concentrations passing through the perfusion system were verified by absorbance. Current traces were digitally filtered at 300 Hz (Gaussian) and averaged using Clampfit 8.2® software. Currents in the absence of cGMP were subtracted from all currents analyzed. KD values were determined and expressed as the mean±SD.

Assay [2] deals with heteromeric rod CNG channels consisting of CNGA1 and CNGB1 subunits (Bos taurus, UniProt Q00194+Q28181). In words: biochemical. It is filed as cell-based. Conditions: 2 mM cGMP; for voltage dependence of block: +50 vs −50 mV. Here is the method:
Currents were elicited by a voltage step protocol from 0 to −50 to +50 mV (See FIG. 1) in the presence of 2 mM cGMP or 2 mM cGMP and compound (5 μM). Time scale is shown in the lower left-hand corner of the panel and FIG. 1, and the zero current level is indicated by the dotted line.
The solid line indicates the fit of the equation for block at a single binding site.
Time scale is shown in the lower left-hand corner of the panel and FIG. 1, and the zero current level is indicated by the dotted line. […] Solid line indicates the fit of the equation for block at a single binding site.
The effectiveness of retinal rod CNG channel current block by the disclosed compounds was tested in Xenopus oocyte preparations. Excised, inside-out patches pulled from oocytes expressed heteromeric rod CNG channels consisting of CNGA1 and CNGB1 subunits. […] CNG channel currents were elicited by a voltage step protocol to −50 and +50 mV (FIG. 1). The apparent KD value at each membrane potential was estimated first by determining I+B and I−B at steady state, where I+B is the current in the presence of blocker and I−B is current in the absence of blocker, for different blocker concentrations ([B]).
Ovaries were surgically removed from adult Xenopus laevis females (Xenopus Express; Brooksville, Fla.) anesthetized with ice-cold 0.1% tricaine and 0.1% NaHCO3 solution. Oocytes were chemically released from ovarian follicles in Ca^2+-free Barth's solution (88 mM NaCl, 1 mM KCl, 2.4 mM NaHCO3, 0.82 mM MgSO4, 7.5 mM Tris, 2.5 mM sodium pyruvate, 100 U/mL penicillin, and 100 μg/mL streptomycin, pH 7.4) containing 0.1 U/mL Liberase Blendzymes (Roche, Indianapolis, Ind.). Stages IV and V oocytes were visually sorted and stored in ND-96 (96 mM NaCl, 2 mM KCl, 1.8 mM CaCl2, 1 mM MgCl2, 5 mM HEPES, 2.5 mM sodium pyruvate, 100 U/mL penicillin, and 100 μg/mL streptomycin, pH 7.4) at 16° C. Oocytes were co-injected the following day with 33 ng of CNGA1 and 67 ng of CNGB1 cRNA […] synthesized from linearized pGEM-HE expression vectors containing the channel subunit cDNA sequence (Strassmaier T & Karpen J, J Med Chem 50, 4186-4194, (2007), incorporated by reference herein) using T7 mMESSAGE mMACHINE® (Ambion, Austin, Tex.). Injected oocytes were incubated at 18° C. the first day and 16° C. for the remaining days.
as §1, with “absorbance.” for “absorbance. Current traces were digitally filtered at 300 Hz (Gaussian) and averaged using Clampfit 8.2® software. Currents in the absence of cGMP were subtracted from all currents analyzed. KD values were determined and expressed as the mean±SD.”

Setting [3] is: +50 mV, concentration series of FIG. 4 / FIG. 5, read-out: KD values determined from the fit of the equation.
The mark [4] stands for this setting: Table 1, +50 mV, mean±SD, not corrected for ion accumulation, read-out: KD(+50).
The mark [5] stands for this setting: Table 1, −50 mV, mean±SD, not corrected for ion accumulation, read-out: KD(−50).
[6] abbreviates: −50 mV, concentration series of FIG. 4 / FIG. 5, read-out: KD values determined from the fit of the equation.

Sequence of heteromeric rod CNG channels consisting of CNGA1 and CNGB1 subunits (Bos taurus, UniProt Q00194+Q28181) (Q00194 whole entry): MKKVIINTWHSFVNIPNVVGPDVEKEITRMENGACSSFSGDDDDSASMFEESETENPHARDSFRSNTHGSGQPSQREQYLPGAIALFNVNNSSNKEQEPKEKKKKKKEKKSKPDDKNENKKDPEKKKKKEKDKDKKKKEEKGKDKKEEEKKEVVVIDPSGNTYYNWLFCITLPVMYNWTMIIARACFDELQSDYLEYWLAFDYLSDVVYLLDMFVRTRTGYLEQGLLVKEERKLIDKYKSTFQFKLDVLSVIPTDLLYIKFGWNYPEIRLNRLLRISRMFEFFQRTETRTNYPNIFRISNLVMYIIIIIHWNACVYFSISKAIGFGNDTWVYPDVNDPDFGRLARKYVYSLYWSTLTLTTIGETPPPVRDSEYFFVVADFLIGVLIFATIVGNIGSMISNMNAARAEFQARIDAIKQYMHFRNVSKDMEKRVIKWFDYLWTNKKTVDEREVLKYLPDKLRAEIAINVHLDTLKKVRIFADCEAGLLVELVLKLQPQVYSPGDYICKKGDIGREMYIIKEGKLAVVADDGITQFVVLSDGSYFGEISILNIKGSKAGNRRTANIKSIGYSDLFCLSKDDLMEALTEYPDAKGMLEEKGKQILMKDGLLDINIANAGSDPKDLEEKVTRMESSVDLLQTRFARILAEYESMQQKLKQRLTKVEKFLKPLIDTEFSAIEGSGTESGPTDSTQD
Sequence of heteromeric rod CNG channels consisting of CNGA1 and CNGB1 subunits (Bos taurus, UniProt Q00194+Q28181) (Q28181 whole entry): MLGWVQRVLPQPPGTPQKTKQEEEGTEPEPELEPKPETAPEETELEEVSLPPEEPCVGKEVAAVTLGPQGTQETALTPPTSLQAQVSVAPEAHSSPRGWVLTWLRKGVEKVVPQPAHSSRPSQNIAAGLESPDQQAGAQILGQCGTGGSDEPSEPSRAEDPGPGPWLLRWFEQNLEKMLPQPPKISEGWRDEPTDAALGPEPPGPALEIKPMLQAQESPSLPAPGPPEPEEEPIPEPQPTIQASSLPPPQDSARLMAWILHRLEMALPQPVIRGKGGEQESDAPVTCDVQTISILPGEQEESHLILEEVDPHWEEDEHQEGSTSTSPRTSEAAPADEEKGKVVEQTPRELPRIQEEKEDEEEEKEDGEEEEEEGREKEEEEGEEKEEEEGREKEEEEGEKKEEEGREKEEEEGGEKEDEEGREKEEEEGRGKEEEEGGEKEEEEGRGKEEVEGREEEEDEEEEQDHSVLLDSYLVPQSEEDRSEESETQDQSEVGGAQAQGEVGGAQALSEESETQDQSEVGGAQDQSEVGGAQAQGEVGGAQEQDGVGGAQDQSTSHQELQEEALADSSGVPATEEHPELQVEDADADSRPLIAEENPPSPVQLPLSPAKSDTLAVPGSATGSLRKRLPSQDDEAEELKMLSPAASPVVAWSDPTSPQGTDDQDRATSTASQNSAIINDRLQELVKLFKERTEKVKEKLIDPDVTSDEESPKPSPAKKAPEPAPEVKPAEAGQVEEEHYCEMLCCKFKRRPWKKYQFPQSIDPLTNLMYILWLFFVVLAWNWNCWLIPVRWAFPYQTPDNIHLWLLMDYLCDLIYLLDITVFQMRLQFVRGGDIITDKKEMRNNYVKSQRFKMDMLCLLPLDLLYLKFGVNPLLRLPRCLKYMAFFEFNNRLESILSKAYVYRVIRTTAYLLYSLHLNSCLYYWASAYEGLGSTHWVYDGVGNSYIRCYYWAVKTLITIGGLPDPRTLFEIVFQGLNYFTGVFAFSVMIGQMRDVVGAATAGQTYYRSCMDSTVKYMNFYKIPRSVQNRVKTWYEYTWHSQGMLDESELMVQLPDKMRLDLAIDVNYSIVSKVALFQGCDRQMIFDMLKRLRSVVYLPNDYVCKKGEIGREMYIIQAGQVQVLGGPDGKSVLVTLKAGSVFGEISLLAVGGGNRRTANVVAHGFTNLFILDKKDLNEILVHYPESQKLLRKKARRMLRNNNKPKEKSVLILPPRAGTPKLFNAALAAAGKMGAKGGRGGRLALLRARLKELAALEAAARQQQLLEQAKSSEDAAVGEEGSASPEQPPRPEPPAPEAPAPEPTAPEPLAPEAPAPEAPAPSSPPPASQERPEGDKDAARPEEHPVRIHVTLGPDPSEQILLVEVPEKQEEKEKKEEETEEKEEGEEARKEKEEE

Regarding `CCCCCCCCNc1ccc(C(=O)OCCN(C)C)cc1` [Compound 5, 2-(Dimethylamino)ethyl 4-(Octylamino)benzoate, reference compound], the “state dependence of block (KD vs fraction of closed channels)” value in assay [1] is “better fit the results expected of a closed channel blocker”. Besides, in assay [2], the “voltage dependence of block” value was “appreciably less voltage dependent than compound 1, 6, and 8”. In addition, the Kd (as a rule, the free concentration of one partner at which half of the binding sites on the other are occupied at equilibrium, for simple one-to-one binding) in assay [2] (setting [3]) is 1500 nM; in assay [2] (setting [4]), 1000 ± 600 nM; in assay [2] (setting [5]), 2400 ± 1400 nM; in assay [2] (octyl series table, +50 mV, read-out: KD(+50)), 800 ± 500 nM; in assay [2] (octyl series table, −50 mV, read-out: KD(−50)) it was 1720 ± 1380 nM; in assay [2] (setting [6]) it was 1800 nM.

With `CCCCNc1ccc(C(=S)NCCN(C)C)cc1` [Compound 8, 4-(Butylamino)-N-(2-(dimethylamino)ethyl)benzothioamide], the “state dependence of block (KD vs fraction of closed channels)” value in assay [1] is “better fit the results expected of a closed channel blocker”. Besides, the Kd was 500 nM in assay [2] (setting [3]), 600 ± 300 nM in assay [2] (setting [4]), 3900 ± 1800 nM in assay [2] (setting [5]) and 3700 nM in assay [2] (setting [6]).

Take `CCCCCCCCNc1ccc(C(=S)NCCN(C)C)cc1` [Compound 9, 4-(Octylamino)-N-(2-(dimethylamino)ethyl)benzothioamide]: the “state dependence of block (KD vs fraction of closed channels)” value in assay [1] is listed as “better fit the results expected of a closed channel blocker”. Moreover, the “voltage dependence of block” value in assay [2] is “appreciably less voltage dependent than compound 1, 6, and 8”. Further, the figures for the Kd in assay [2] (setting [3]), in assay [2] (setting [4]) and in assay [2] (setting [6]) were 1300 nM, 700 ± 500 nM and 1800 nM, respectively.
